In article PMC4632323, “Development of a neuroprotective peptide that preserves survival pathways by preventing Kidins220/ARMS calpain processing induced by excitotoxicity” (Cell Death & Disease, 2015):
Where a SMILES comes first, the peptide text is derived from it. Where no end group is shown, it is not given here. The star is where a group is joined. Cbz = O=C(OCc1ccccc1)*

What was measured:
cortical neurons = assay: Calcein-AM/propidium iodide staining of viable and dead neurons after excitotoxicity; assay type: cell-based, rat; details: peptide 25 μM pre-incubated 1 h, NMDA 4 h; mean ± S.E.M., n=7
Method: Figure 5 Neuroprotective effect exerted by Tat-K transduction on excitotoxic neuronal death. (a) Effect of Tat-K on cell death induced by NMDAR overactivation. Primary cultures of cortical neurons (DIV 14) were pre-incubated for 1 h with Tat-S or Tat-K (25 μM) and treated with NMDA for 4 h or left untreated. Next, viable and dead cells were visualized by simultaneous fluorescence staining with calcein-AM (1 μM; green) and propidium iodide (PI; 0.5 mM; red), respectively, for 15 min at 37 °C in the dark. Representative images for each condition are shown. Scale bar, 25 μm. (b) Quantitation of Tat-K effect on the relative percentage of viable/dead neurons found in excitotoxic conditions. A minimum of five random fields containing at least 500 neurons each were counted per experimental condition. […] Statistical significance was determined by paired Student's t-test (**P<0.01). (c) Quantitation of the effect of Tat-K on neuronal viability after induction of excitotoxicity. […] Neuronal viability was established by MTT reduction assay after subtracting the contribution of the glial cells present in the mixed cultures to absorbance as indicated in the Methods section. […] Statistical significance was determined by paired Student's t-test (*P<0.05, **P<0.01) […]

Kidins220 [1] = assay: In vitro digestion of neuronal protein extracts with purified calpain I, immunoblot (Kid-Ct); assay type: biochemical, rat; details: calpain I 0-80 U/ml, 15 or 30 min, inhibitor 20 μM
Method: (c) Protein extracts from cortical neurons subjected to in vitro digestion with purified calpain I (0, 20, 50 or 80 U/ml) for 15 or 30 min in the absence or presence of calpain inhibitor CiIII (20 μM).
Protein extracts from cortical neurons were subjected to in vitro digestion with purified calpain I (20 U/ml) for 15 min in the presence of peptides Tat-K (K) or Tat-S (S) (0.5 μM). Results were analyzed by immunoblot with Kidins220 (Kid-Ct), spectrin and NSE antibodies.

Kidins220 [2] = assay: Kidins220 calpain processing induced by NMDAR overactivation in cortical neurons, immunoblot; assay type: cell-based, rat; details: inhibitor added 1 h before NMDA 100 μM + glycine 10 μM, 4 h; CiIII 20 μM, lactacystin 15 μM; Kid-Nt immunoblot
Method: Figure 1 Approximate mapping of Kidins220 processing sites recognized by calpain after induction of excitotoxicity. (a) Immunoblot analysis of primary neuronal cultures (DIV 14) treated with high concentrations of NMDA (100 μM) and glycine (10 μM), herein indicated as NMDA, for 0–6 h. Kidins220 antibodies recognizing a C-terminal peptide (amino acids 1746–1762; Kid-Ct) or the N-terminal region (amino acids 1–402; Kid-Nt), or that specific for the protein neuronal-specific enolase (NSE) were used. Bands corresponding to endogenous full-length (FL) Kidins220 or its different processing N-terminal fragments (Nt-0/Nt-9) are indicated. […]
(a) Cell-membrane peptide Tat-K contains from the N- to the C-terminus amino acids 47–57 of the HIV-1 Tat protein (italic) followed by two proline linker residues and rat Kidins220 amino acids 1668–1681 (bold), which include the major calpain cleavage site (arrow). […] Results were analyzed by immunoblot with Kidins220 (Kid-Ct), spectrin and NSE antibodies. […] Primary cultures of neurons (DIV 14) were incubated with 5, 10 or 25 μM of FITC-labeled control peptide (FITC-Tat-S) for 2, 4 or 6 h and pictures were taken in a conventional fluorescence microscope. […] Cortical neurons were pre-incubated for 1 h with 10 or 25 μM of Tat-K (K) or Tat-S (S) before NMDA addition for 4 h and analyzed by immunoblot with Kidins220 (Kid-Ct), spectrin and NSE antibodies. […]

Compound | Viable neurons (calcein-AM) relative to total number of neurons (cortical neurons) [%] | Effect on calpain I cleavage of Kidins220 (decrease of FL-Kidins220 and accumulation of Ct-0) (Kidins220 [1]) | Effect on NMDA-induced Kidins220 processing (Nt-1/Nt-9 production) (Kidins220 [2])
YGRKKRRQRRRPPLNRTPSTVTLNNNT [Tat-K] | 40±7 |  | 
YGRKKRRQRRRPPNTTTLSNLPTNVRN [Tat-S] | 23±7 |  | 
CC(C)[C@H](NC(=O)OCc1ccccc1)C(=O)N[C@H](C=O)Cc1ccccc1 [CiIII, carbobenzoxy–valinyl–phenylalaninal] (Cbz-Val-Phe-aldehyde) |  | inhibited | strongly prevented NMDA-induced processing
